The text below walks through data of patent publication US6395730B1, “Potassium channel inhibitors” (Icagen, Inc., priority 1998, dated 2002).

The target in assay [1] is Kv1.5 potassium channel subunit (Homo sapiens, UniProt P22460). Description: Electrophysiological studies (whole cell patch clamp). It counts as cell-based. As to conditions: inhibition of Kv1.5 potassium currents, Chinese hamster ovary cells stably expressing Kv1.5. As to the method: Electrophysiological recordings of potassium currents in Chinese hamster ovary cells stably expressing the gene construct for the Kv1.5 potassium channel subunit were performed using the whole cell configuration of the patch clamp technique (Hamill et al., Pflugers Archiv 391:85, 1981). Cell lines expressing Kv1.5 were prepared using standard techniques known to those skilled in the art. Cells were plated on glass coverslips at a density of 2×10^4 cells/coverslip and used within 24-48 hours. Solutions used for electrophysiological recordings were as follows. Extracellular bathing solutions contained (in mM) 132 NaCl, 5.4 KCl, 1.8 CaCl2, 0.8 MgCl2, 10 HEPES, 5 glucose at pH 7.3. Electrode pipette solutions for measuring Kv1.5 contain (in mM) 100 KF, 40 KCl, 5 NaCl, 2 MgCl2, 5 mM EGTA, 10 mM HEPES and 5 glucose at pH 7.4, 295 mOsm. The coverslips were placed in a small chamber (volume ˜200 μl) on the mechanical stage of an inverted microscope and […] (2 ml/min) with extracellular recording solution. Drug application is achieved via a series of narrow-bore glass capillary tubes (inner diameter ˜100 μm) positioned approximately 200 μm from the cell.
The testing results of selective compounds from Tables 1 and 2 using this assay are reported in Table 3 (EP) as the potency for inhibition of Kv1.5 potassium currents by compounds of the invention.

For a further assay, the target named is T1, human Kv1.5 (Homo sapiens, UniProt P22460).
T1 construct: expressed in transfected cells
Description: 86Rb efflux assay. It counts as cell-based. As to conditions: inhibition of 86Rb efflux through Kv1.5 potassium channels expressed in CHO cells; 70 mM KCl depolarization; read-out: IC50 (μM) (flux). As to the method: Cells stably transfected with cDNA for human Kv1.5 (in pcDNA3 vector) were grown as confluent monolayers in 96 well tissue culture plates in MEM alpha with 10% heat inactivated fetal bovine serum and 400 μg/ml G418. Cells were incubated overnight in growth media containing 1 μCi/ml ^86Rb to permit intracellular uptake of the isotope. At the end of the incubation period, the ^86Rb solution is aspirated and the cells washed three times with Earls Balanced Salt Solution (EBSS) which contains (in mM) 132 NaCl, 5.4 KCl, 1.8 CaCl2, 0.8 mM MgCl2 10 mM HEPES and 5 mM glucose. The cells were then preincubated for 10 minutes at room temperature in 100 μl/well of EBSS or EBSS containing test compounds. At the end of this period the wells were aspirated and to each well is then added 100 μl of a modified EBSS solution containing 70 mM KCl (NaCl replaced by KCl) and the compound to be tested. The high KCl concentration is utilized to depolarize the cells to membrane potentials that will activate Kv1.5 channels. After a 1 minute incubation in 70 mM KCl EBSS plus test compound, the solution is removed and placed into the appropriate well of a 96 well counting plate for analysis. Finally 100 μl of 0.1% sodium dodecyl sulfate in EBSS is added to each well to lyse the cells. The lysate is taken for analysis to determine final cell content of ^86Rb. Samples were counted in a Wallac Microbeta liquid scintillation counter by Cerenkov emission. Efflux is expressed as a percentage of the initial cell content of ^86Rb.
The testing results of selective compounds from Tables 1 and 2 using this assay are reported in Table 3 (flux) as the potency for inhibition of ^86Rb efflux through Kv1.5 potassium channels expressed in CHO cells by compounds of the invention.

Each structure is given as a SMILES string.

T1 sequence (P22460 whole entry): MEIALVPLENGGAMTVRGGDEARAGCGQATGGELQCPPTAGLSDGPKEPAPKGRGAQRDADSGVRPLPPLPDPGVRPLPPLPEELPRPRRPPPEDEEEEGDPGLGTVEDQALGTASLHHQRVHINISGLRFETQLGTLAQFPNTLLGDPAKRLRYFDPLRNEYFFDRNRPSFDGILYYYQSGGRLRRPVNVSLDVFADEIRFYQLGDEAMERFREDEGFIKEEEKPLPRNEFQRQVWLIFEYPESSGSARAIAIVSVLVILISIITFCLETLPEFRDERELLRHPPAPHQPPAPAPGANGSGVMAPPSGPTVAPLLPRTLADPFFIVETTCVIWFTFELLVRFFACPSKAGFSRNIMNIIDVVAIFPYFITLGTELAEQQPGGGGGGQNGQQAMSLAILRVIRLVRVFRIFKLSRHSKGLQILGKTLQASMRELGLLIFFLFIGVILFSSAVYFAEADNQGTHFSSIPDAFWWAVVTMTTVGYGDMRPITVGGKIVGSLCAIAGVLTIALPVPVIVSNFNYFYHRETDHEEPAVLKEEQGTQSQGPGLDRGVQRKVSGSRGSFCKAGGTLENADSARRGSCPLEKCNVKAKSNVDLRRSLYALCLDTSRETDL
Sequence of Kv1.5 potassium channel subunit (P22460 whole entry): as above

Usually IC50 stands for the concentration at which inhibition is half-maximal. On to `COc1ccc(CCN2C(=O)CSC2c2cccc(OC)c2)cc1` (centres unmarked) [1 of Table 1], for which the values for the half-inhibitory concentration (IC50) (in assay [1]; on human Kv1.5) were 0.6 µM and 3.9 µM, respectively.

As to `COc1ccc(CCN2C(=O)CCSC2c2ccc(C)c(C)c2)cc1` (centres unmarked) [2 of Table 2], the half-inhibitory concentration (IC50) in assay [1] worked out at 0.3 µM; on human Kv1.5, 1.5 µM.

Regarding `COc1ccc(CCN2C(=O)CSC2c2ccc(OC)c(OC)c2)cc1` (centres unmarked) [5 of Table 1], the values for the IC50 (in assay [1]; on human Kv1.5) were 6 µM and 29.6 µM, respectively.

For the compound `COc1cccc(CCN2C(=O)CSC2c2ccc3c(c2)OCO3)c1` (centres unmarked) [8 of Table 1], the values for the half-inhibitory concentration (IC50) (in assay [1]; at human Kv1.5) were 1.2 µM and 9.9 µM, respectively.

Regarding `COc1ccc(CCN2C(=O)CCSC2c2ccc3c(c2)OCO3)cc1` (centres unmarked) [18 of Table 2], the half-maximal inhibitory concentration (IC50) in assay [1] came out at 1 µM; at human Kv1.5, 1.5 µM.

`COc1ccc(CCN2C(=O)CSC2c2ccc(F)c(F)c2)cc1` (centres unmarked) [23 of Table 1]: the IC50 on human Kv1.5 came out at 14.5 µM.

For `COc1ccc(CN2C(=O)CSC2c2cccc(OC)c2)cc1` (centres unmarked) [36 of Table 1], the 50% inhibitory concentration (IC50) in assay [1] is 4.7 µM; at human Kv1.5 it was 30 µM.

In the case of `COc1ccc(CCN2C(=O)C(C)SC2c2ccc3c(c2)OCCO3)cc1` (centres unmarked) [45 of Table 1], the IC50 in assay [1] was 0.6 µM.

On to `COc1ccc(CCN2C(=O)CSC2c2ccc(C)c(C)c2)cc1` (centres unmarked) [52 of Table 1], for which the IC50 in assay [1] was 0.2 µM; at human Kv1.5, 0.9 µM.

In the case of `Cc1ccc(C2SCC(=O)N2CCCCc2ccccc2)cc1C` (centres unmarked) [60 of Table 1], the IC50 came out at 0.3 µM in assay [1] and 6.9 µM at human Kv1.5.

Take `CCc1ccc(C2SCC(=O)N2CCc2ccc(OC)cc2)s1` (centres unmarked) [67 of Table 1]: the half-maximal inhibitory concentration (IC50) in assay [1] was found to be 0.7 µM; at human Kv1.5, 1.3 µM.

With `CCCCCCN1C(=O)CSC1c1cccc(OC)c1` (centres unmarked) [77 of Table 1], the IC50 was determined as 1.6 µM in assay [1] and 10.5 µM on human Kv1.5.

In the case of `Cc1ccc(C2SCC(=O)N2CC#Cc2ccccc2)cc1C` (centres unmarked) [82 of Table 1], at human Kv1.5, the IC50 amounted to 4.7 µM.
